From patent publication US5464617A, “β-lactam compounds” (Hoffmann-La Roche Inc., priority 1994, dated 1995)
Values after ≈ are worked out from the molar mass of the structure shown. Where a name gives a salt, the structure may show the parent alone.

Assays:
[1] = test system: Citrobacter freundii 1982; assay: MIC in vitro of a 1:4 combination of ceftriaxone with a compound of formula I (Test D); assay type: cell-based; conditions: Table 4; test D, 1:4 combination of ceftriaxone with the compound
Protocol: The minimum inhibitory concentration in vitro ([…]) of a 1:4 combination of ceftriaxone with a compound of formula I against Citrobacter freundii 1982 was measured and compiled in Table 2 hereinafter.

E. coli 1346 = assay: Antibacterial activity of the products per se, serial dilution method in liquid medium (Test E); assay type: cell-based; conditions: Table 4; test E, product per se
Excerpt: The antibacterial activity of the products per se is illustrated on the basis of Table 3 hereinafter, the minimum inhibitory concentration […] in vitro against E. coli 1346 being determined using the serial dilution method in liquid medium: […]

Row | Compound | MIC C. freundii 1982 (D) [1] [µg/mL] | MIC E. coli 1346 (E) (E. coli 1346) [µg/mL]
1 | CC(=O)N1C[C@H]2OC(CSc3nnnn3CC(=O)NOC(c3ccccc3)(c3ccccc3)c3ccccc3)=C(C(=O)O)N3C(=O)[C@@H]1[C@@H]23 [32(h), (1aS,3aR,6bS)-2-Acetyl-1-oxo-5-(1-(trityloxycarbamoylmethyl)-1H-tetrazol-5-ylsulphanylmethyl)-1,1a,2,3,3a,6b-hexahydro-4-oxa-2,6 a-diazacyclobut[cd]indene-6-carboxylic acid sodium salt] | 64 | > 32
2 | NC(=O)Cn1nnnc1SCC1=C(C(=O)O)N2C(=O)[C@@H]3[C@H]2[C@@H](CN3C=O)O1 [38(b), (1 aS ,3aR, 6 bS )-5-(1-Carbamoylmethyl-1H-tetrazol-5-yl-sulfanylmethyl)-2-formyl-1-oxo-1,1a,2,3,3a,6b-hexahydro-4-oxa-2,6a-diaza-cyclobut[cd]indene-6-carboxylic acid sodium salt] | 4 | 8
3 | O=CN1C[C@H]2OC(CSc3nnnn3CC(=O)NOC(c3ccccc3)(c3ccccc3)c3ccccc3)=C(C(=O)O)N3C(=O)[C@@H]1[C@@H]23 [38(d), (1aS,3aR,6bS)-2-Formyl-1-oxo-5-(1-(trityloxycarbamoylmethyl)-1H-tetrazol-5-ylsulphanylmethyl)-1,1a,2,3,3a,6b-hexahydro-4-oxa-2,6a-diazacyclobut[cd]indene-6-carboxylic acid sodium salt] | 128 | > 32
4 | Cn1ccnc1SCC1=C(C(=O)O)N2C(=O)[C@H]3NC[C@@H](S1)[C@H]32 [40(c), (1aS,3aR,6bS)-5-(1-Methyl-imidazol-2-ylsulphanyl-methyl)-1-oxo-4-thia-1,1a,2,3,3a,6b-hexahydro-2,6a-diazacyclobut[cd]indene-6-carboxylic acid] | 0.5 | > 32
5 | Cn1c(O)nnc1SCC1=C(C(=O)O)N2C(=O)[C@H]3NC[C@@H](S1)[C@H]32 [40(d), (1aS,3aR,6bS)-5-(5-Hydroxy-4-methyl-4H-[1,2,4]-triazol-3-ylsulphanylmethyl)-1-oxo-4-thia-1,1a,2,3,3a,6b-hexahydro-2,6a-diazacyclobut[cd]indene-6-carboxylic acid] | 2 | 8 (≈ 22.5 µM)
6 | Nc1nnc(SCC2=C(C(=O)O)N3C(=O)[C@H]4NC[C@@H](S2)[C@H]43)s1 [40(e), (1aS,3aR,6bS)-5-(5-Amino-1,3,4-thiadiazol-2-ylsulphanylmethyl)-1-oxo-4-thia-1,1a,2,3,3a,6b-hexahydro-2,6a-diazacyclobut[cd]indene-6-carboxylic acid] | 1 | 32 (≈ 89.5 µM)
7 | O=C(O)C1=C(CSc2ccncc2)S[C@@H]2CN[C@@H]3C(=O)N1[C@@H]32 [40(f), (1aS,3aR,6bS)-1-Oxo-5-(pyridin-4-ylsulphanylmethyl)-4-thia-1,1a,2,3,3a,6b-hexahydro-2,6a-diazacyclobut[cd]indene-6-carboxylic acid] | 2 | 32 (≈ 95.4 µM)

More lines, now with the values ahead:

Row | MIC C. freundii 1982 (D) [1] [µg/mL] | MIC E. coli 1346 (E) (E. coli 1346) [µg/mL] | Compound
8 | 4 | > 32 | O=C(O)C1=C(CSc2nnnn2CC(=O)N2CCOCC2)S[C@@H]2CN[C@@H]3C(=O)N1[C@@H]32 [40(g), (1aS,3aR,6bS)-5-[1-(2-Morpholin-4-yl-2-oxo-ethyl)-1H-tetrazol-5-ylsulphanylmethyl]-1-oxo-4-thia-1,1a,2,3,3a,6b-hexahydro-2,6a-diazacyclobut[cd]indene-6-carboxylic acid]
9 | 0.5 | 8 (≈ 22.4 µM) | Cc1nnc(SCC2=C(C(=O)O)N3C(=O)[C@H]4NC[C@@H](S2)[C@H]43)s1 [40(h), (1aS,3aR,6bS)-5-[5-Methyl-1,3,4-thiadiazol-2-ylsulphanylmethyl]-1-oxo-4-thia-1,1a,2,3,3a,6b-hexahydro-2,6a-diazacyclobut[cd]indene-6-carboxylic acid]
10 | 2 | > 32 | O=C(O)C1=C(CSc2ccnc3c2CCC3)S[C@@H]2CN(C(=O)Nc3ccc(O)cc3)[C@@H]3C(=O)N1[C@@H]32 [41(a), (1aS,3aR,6bS)-2-(4-Hydroxy-phenylcarbamoyl)-5-(6,7-dihydro-5H-1-pyrindin-4-ylsulphanylmethyl)-1-oxo-4-thia-1,1a,2,3,3a,6b-hexahydro-2,6a-diazacyclobut[cd]indene-6-carboxylic acid sodium salt]
11 | 4 | > 32 | O=C(O)C1=C(CSc2ccncc2)S[C@@H]2CN(C(=O)Nc3ccc(O)cc3)[C@@H]3C(=O)N1[C@@H]32 [41(b), (1aS,3aR,6bS)-2-(4-Hydroxy-phenylcarbamoyl)-1-oxo-5-(pyridin-4-ylsulphanylmethyl)-4-thia-1,1a,2,3,3a,6b-hexahydro-2,6a-diazacyclobut[cd]indene-6-carboxylic acid sodium salt]
12 | 1 | > 32 | Cc1nnc(SCC2=C(C(=O)O)N3C(=O)[C@@H]4[C@H]3[C@@H](CN4C(=O)Nc3ccc(O)cc3)S2)s1 [41(c), (1aS,3aR,6bS)-2-(4-Hydroxy-phenylcarbamoyl)-5-(5-methyl-1,3,4-thiadiazol-2-ylsulphanylmethyl)-1-oxo-4-thia-1,1a,2,3,3a,6b-hexahydro-2,6a-diazacyclobut[cd]indene-6-carboxylic acid sodium salt]
13 | 1 | > 32 | O=C(O)C1=C(CO)S[C@@H]2CN(C(=O)Nc3ccc(O)cc3)[C@@H]3C(=O)N1[C@@H]32 [41(d) Byproduct]
14 | 0.5 | > 32 | Cn1nnnc1SCC1=C(C(=O)O)N2C(=O)[C@@H]3[C@H]2[C@@H](CN3C(=O)Nc2ccc(O)cc2)S1 [41(d), (1aS,3aR,6bS)-2-(4-Hydroxy-phenylcarbamoyl)-5-(1-methyl-1H-tetrazol-5-ylsulphanylmethyl)-1-oxo-4-thia-1,1a,2,3,3a,6b-hexahydro-2,6a-diazacyclobut[cd]indene-6-carboxylic acid sodium salt]
15 | 1 | 2 | CC(=O)N1C[C@H]2SC(CSc3nnc(C)s3)=C(C(=O)O)N3C(=O)[C@@H]1[C@@H]23 [42(a), (1aS,3aR,6bS)-2-Acetyl-5-(5-methyl-1,3,4-thiadiazol-2-ylsulphanylmethyl)-1-oxo-4-thia-1,1a,2,3,3a,6b-hexahydro-2,6a-diazacyclobut[cd]indene-6-carboxylic acid sodium salt]
16 | 2 | 0.5 | CC(=O)N1C[C@H]2SC(CSc3ccncc3)=C(C(=O)O)N3C(=O)[C@@H]1[C@@H]23 [42(b), (1aS,3aR,6bS)-2-Acetyl-1-oxo-5-(pyridin-4-ylsulphanylmethyl)-4-thia-1,1a,2,3,3a,6b-hexahydro-2,6a-diazacyclobut[cd]indene-6-carboxylic acid sodium salt]
17 | 0.2 | 16 | Cn1nnnc1SCC1=C(C(=O)O)N2C(=O)[C@@H]3[C@H]2[C@@H](CN3C(=O)CSc2nnc(N)s2)S1 [42(c), (1aS,3aR,6bS)-2-(2-Amino-1,3,4-thiadiazol-5-ylsulphanylacetyl)-5-(1-methyl-1H-tetrazol-5-ylsulphanylmethyl)-1-oxo-4-thia-1,1a,2,3,3a,6b-hexahydro-2,6a-diazacyclobut[cd]indene-6-carboxylic acid sodium salt]
